Consider one compound from patent US20230110128A1, “USE OF ANTIBODY DRUG CONJUGATES COMPRISING TUBULIN DISRUPTING AGENTS TO TREAT SOLID TUMOR” (Seagen Inc., priority 2018, published 2023).

The subject of assay [1] is MCF7 breast cancer cells. Description: Western blot analysis of ER stress response in MCF7 cells. The assay is classed as cell-based. The conditions noted are these: 16 hours. The procedure: MCF7 breast cancer cells were treated with 100 nM MMAE for 16 hours and harvested RIPA buffer for western blot analysis.
MCF7 cells were treated with MMAE or an MMAE-containing ADC (SGN-LIV1A) for 16 hours and harvested in […] for western bot analysis. […] Induction of ICD is also characterized by the secretion of ATP and HMGB1. Extracellular ATP serves as a strong chemotactic signal, promoting immune cell migration to the tumor site. Upon arrival, extracellular HMGB1 signals through various pro-inflammatory receptors (TLR2, TLR4, RAGE) to activate antigen-presenting cells, thereby promoting immune activity within the tumor.

Assay [2] has as its system MiaPaca-CHOP-luciferase cells subcutaneously engrafted. The assay can be described thus: Tumoral CHOP luciferase signal in engrafted MiaPaca-CHOP-luciferase tumors. In kind it is in vivo, NOD/SCID/gamma-chain deficient mice. Particulars: intratumorally; MMAE 0.36 mg/kg, vincristine 1.0 mg/kg, Paclitaxel 10 mg/kg. The method, then: MiaPaca-CHOP-luciferase cells were subcutaneously engrafted into NOD/SCID/gamma-chain deficient mice. Subcutaneous tumors were treated intratumorally with MMAE (0.36 mg/kg), vincristine (1.0 mg/kg), and Paclitaxel (10 mg/kg) and tumoral luciferase signal was monitored over time.

Assay [3] deals with PC-3 cells. Description: HMGB1 release from PC-3 cells. In kind it is cell-based. The conditions noted are these: FIG. 3E.
Assay [4] relates to HeLa cervical cancer cells. Description: Western blot analysis of ER stress in HeLa cells. In kind it is cell-based. The conditions noted are these: 1000 nM or 100 nM, 16 hours. The procedure:
HeLa cervical cancer cells were treated with 1000 nM or 100 nM MMAE, Vincristine, or Paclitaxel for 16 hours and harvested for western blot analysis.
(In general: In western blotting, separated proteins are transferred to a membrane and probed.)

In assay [5] the test system is A2058, SK-MEL-5, SK-MEL-28, Calu-1, HT-1080, SK-MES-1 and BXPC3 cells. The assay can be described thus: ATP secretion in a panel of solid tumor cell lines. Particulars: 7 cell lines, supernatant after 17 hours. The assay is classed as cell-based. The procedure:
(§1) Skin tumor lines A2058, SK-MEL-5 and SK-MEL-28, Calu-1 (lung), HT-1080 (fibrosarcoma), SK-MES-1 (lung), and BXPC3 (pancreas) cells were treated with MMAE, vincristine, and Paclitaxel. Supernatant was collected after 17 hours of treatment, and analyzed for ATP secretion.

The test system of assay [6] is A2058, SK-MEL-5, SK-MEL-28 (skin) cell lines. The assay can be described thus: ATP secretion in skin cell lines. The assay is classed as cell-based. Particulars: A2058, SK-MEL-5, SK-MEL-28, after 17 hours. The method, then: as §1
Assay [7] relates to A2058 and SK-MEL-5 tumor cells co-cultured with macrophages. Description: Cytokine and chemokine production in macrophage co-culture with treated A2058 and SK-MEL-5 cells. In kind it is cell-based. The conditions noted are these: A2058 and SK-MEL-5 co-culture supernatant 24 hours, ELISA, normalized to untreated. The procedure: Supernatant from the co-culture of macrophages and dying A2058 and SK-MEL-5 tumor cells was harvested 24 hours later and assayed for levels of cytokine and chemokine production by ELISA and normalized to macrophages that were co-cultured with untreated tumor cells.
A general note: An ELISA detects its analyte on a solid surface through an enzyme-linked reagent.

The subject of assay [8] is Calu-1, HT1080 and SK-MES-1 cells co-cultured with macrophages. Description: Macrophage costimulation/antigen presentation after co-culture with treated Calu-1, HT1080 and SK-MES-1 cells. The assay is classed as cell-based. Particulars: normalized to untreated. The procedure:
Additional cell lines [Calu-1 (lung), HT1080 (fibrosarcoma) and SK-MES-1 […]] were tested for levels of antigen presentation after co culture with macrophages as above. Levels of costimulation (as measured by frequency of CD86-expressing macrophages, Calu-1) or antigen-presentation (as measured by frequency of MHCII-expressing macrophages, HT1080 and SK-MES-1) were quantified and normalized to macrophages that were co-cultured with untreated tumor cells. […] Calu-1, HT-1080, and SK-MES-1 cells were treated with an MMAE-containing ADC (anti-p97-MMAE), vincristine, or paclitaxel for 24 hours and analyzed for HMGB1 release by ELISA.

Assay [9] relates to Hep3b, Huh7, and JHH7 cells co-cultured with macrophages. Description: Cytokine and chemokine production in macrophage co-culture with treated liver tumor cells. In kind it is cell-based. Particulars: Huh7, JHH7 co-culture supernatant 24 hours, ELISA, normalized to untreated. The procedure:
Liver tumor lines Hep3b, Huh7, and JHH7 cells were treated with MMAE, Tubulysin M, vincristine, and Paclitaxel for 24 hours and analyzed for ATP secretion. […] Cells were washed and harvested, and subsequently co-cultured with enriched macrophages prepared as above. Macrophages were harvested 4 days after co-culture and assayed for immune activation by flow cytometry. Levels of costimulation (as measured by CD86 expression, JHH7) and antigen-presentation (as measured by frequency of MHCII-expressing cells, Hep3b, Huh7, and JHH7) were quantified and normalized to macrophages that were co-cultured with […]. […] Supernatant from the co-culture of macrophages and dying liver tumor cells was harvested 24 hours later and assayed for levels of cytokine and chemokine production by ELISA and normalized to macrophages that were co-cultured with untreated tumor cells.

For assay [10], the system named is U-266 multiple myeloma cells. Description: Western blot analysis of ER stress in U-266 cells. Particulars: MMAE 492 nM, SGN-CD48A 10 ng/ml, 24 and 48 hours. In kind it is cell-based. The method, then:
U-266 multiple myeloma cells were treated with free MMAE (492 nM), an MMAE-containing ADC (SGN-CD48A, 10 ng/ml), and a non-binding MMAE-ADO (10 ng/ml) for 24 and 48 hours. Cells were harvested at each time point and whole cell lysates were prepared. Lysates for each sample were run on an SDS-Page and transferred onto a nitrocellulose membrane. Western blot analysis was performed using phospho-JNK Thr183/Tyr185 (pJNK), PARR, ATF4, […], phospho-IRE-1 Ser274 (pIRE-1). β-actin serves as a loading control. […] Importantly, the induction of ER stress by MMAE in U-266 cells was sufficient to elicit markers of ICD.

The test system of assay [11] is U-266 cells. The assay can be described thus: Cell surface ICD markers (HSP70, calreticulin) on AnnexinV negative U-266 cells. In kind it is cell-based. Particulars: 48 hours, MMAE 492 nM, SGN-CD48A 10 ng/ml. The procedure:
U-266 cells were treated for 48 hours with free MMAE (492 nM), an MMAE-containing ADC (SGN-CD48A, 10 ng/ml), and a non-binding MMAE-ADC (10 ng/ml) for 48 hours. Cells were harvested, washed in flow buffer, and subsequently stained for both AnnexinV, a marker for apoptosis, and HSP70. Cells were also stained with both AnnexinV and calreticulin. In both conditions, cells that were AnnexinV negative were selected and the percent population that was positive for HSP70 or calreticulin were determined.

Non-standard residues stand in square brackets, D forms with d. Residues, ends and D or L forms follow the SMILES beside them. *: point of attachment. Dolaproine = CO[C@@H]([C@@H]1CCCN1)[C@@H](C)C(=O)O; Dil = CC[C@H](C)[C@H](NC)[C@@H](CC(=O)O)OC; X1 = C[C@@H](N*)[C@@H](O)c1ccccc1; NMeV = CN[C@H](C(=O)O)C(C)C

Consider `CC[C@H](C)[C@@H]([C@@H](CC(=O)N1CCC[C@H]1[C@H](OC)[C@@H](C)C(=O)N[C@H](C)[C@@H](O)c1ccccc1)OC)N(C)C(=O)[C@@H](NC(=O)[C@@H](NC)C(C)C)C(C)C` [MMAE, monomethyl auristatin E] (H-[NMeV]V[Dil][Dolaproine]-X1), for which the “Severe ER stress (JNK signaling by phosphorylated IRE1, expression of CHOP)” value in [1] (western blot) was “elicited by MMAE”. The “ER stress response (phosphorylation of IRE1 and eIF2a, cleavage of full-length ATF6)” value in assay [1] (western blot (100 nM MMAE elsewhere in the source)) is reported as “activated all 3 pathways of the ER stress response”. Also, the “Severe ER stress in engrafted tumors (tumoral luciferase signal over time)” value in assay [2] was “rapidly elicited severe ER stress”. In [3], the “Release of HMGB1” value was “release of ATP and HMGB1”. Also, in assay [4], the “ER stress responses (phosphorylation of IRE1)” value is recorded as “activated ER stress responses” and the “Severe ER stress response (phosphorylation of JNK)” value is listed as “more severe ER stress response that was sustained with decreasing doses”. In assay [5], the “ATP secretion (cell lines responding)” value is on record as “ATP secretion in most of the cell lines assayed (6/7)” and the “ATP secretion response compared with Paclitaxel” value was “more robust response than Paclitaxel in all cell lines assayed”. Besides, the “ATP secretion (skin cell lines responding)” value in [6] is “potent ATP secretion from all 3”. Besides, the “Cytokine and chemokine production” value in assay [7] was “increase of the indicated cytokines and chemokines that was more robust than treatment with Paclitaxel”. Also, the “Immune activation (CD86-expressing macrophages, Calu-1; MHCII-expressing macrophages, HT1080 and SK-MES-1)” value in assay [8] is listed as “increase in immune activation in 3/3 tumor cell lines that was more robust than treatment with Paclitaxel”. Also, the “Cytokine and chemokine production” value in [9] was “increase of the indicated cytokines and chemokines that was more robust than treatment with Paclitaxel”. Moreover, the “ER stress response (ATF4 expression, phosphorylation of JNK)” value in [10] is “further increased the ER stress response”. Moreover, the “Percentage of ICD markers (HSP70, calreticulin) on the cell surface of AnnexinV negative cells” value in assay [11] is listed as “increase in the percentage of ICD markers”.
